Converted amounts (≈) assume the structure as drawn. Read-outs that look alike come from different tables or passages of the source. Each block holds one molecule with its values, some of them ahead of it.
Experiments:
[1] = comparison detergent, source not given; cited from earlier work
Aqueous solubility = format: physicochemical; conditions: water
[2] = CMC by dye uptake (orange OT); format: physicochemical
From the text: Triphenylacetic acid 4.0 has a novel amphiphilic geometry and is commercially available.
The addition of the t-butyl group accomplished the goal of increasing the hydrophobic surface area, as indicated by the diminished CMC's.
The CMC of a detergent can be determined experimentally by measuring the solubilization of a water-insoluble dye or fluorophore while varying the concentration of detergent. CMC may also be determined by measuring the diminution of the surface tension of an aqueous solution as a function of detergent concentration. (CMC's determined by either method correlate with each other.) The CMC is determined by extrapolating the plot of solubilization vs. concentration (or surface tension vs. concentration) in the two linear regions above and below the CMC. Where the two lines intersect is the CMC. In this Example, CMC's were determined by the method of Nugebauer, J. M. (1990), Methods in Enzymology, 182:239-253: […]

Bacteriorhodopsin (BR) [3] = biological target: T1, Bacteriorhodopsin (BR) (Halobacterium salinarum, UniProt P02945); conditions: reported detergents; cited from earlier work
T1 construct: We used BR solubilization from the PM to evaluate tripod detergents; endogenous in cells
T1 sequence (P02945 14-261 limits assumed): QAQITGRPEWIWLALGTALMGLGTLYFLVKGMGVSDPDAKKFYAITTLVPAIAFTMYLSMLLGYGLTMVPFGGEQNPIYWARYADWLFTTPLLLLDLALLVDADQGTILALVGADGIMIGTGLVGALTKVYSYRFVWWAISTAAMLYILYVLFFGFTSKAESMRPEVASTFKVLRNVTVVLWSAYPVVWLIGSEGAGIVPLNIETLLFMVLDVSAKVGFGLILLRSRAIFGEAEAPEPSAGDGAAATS

[4] = CMC values of conventional detergents quoted for comparison; format: physicochemical
Bacteriorhodopsin (BR) [5] = biological target: T1, Bacteriorhodopsin (BR); assay: Solubilization of bacteriorhodopsin (BR) from purple membrane (PM)
Method: We used BR solubilization from the PM to evaluate tripod detergents synthesized using the modular synthetic approach described above. The retinal chromophore of BR allowed us to quantify solubilized material by UV. Solubilized BR is defined as the intact protein left in the supernatant after a sample is centrifuged for 30 minutes at 300,000 g. The percent BR solubilized is determined by dividing the absorbance of the supernatant by the absorbance of the solution before centrifugation.
Solubilization experiments were conducted by making a series of solutions with constant concentration of PM and varying the concentration of detergent. […] The absorbance at the λmax (between 540 nm and 570 nm) was then measured, and immediately afterward the samples were centrifuged for 30 minutes at 300,000 g. The supernatant was carefully removed so as not to disturb pelleted material. Absorbance measurements were made again, and the ratio of the supernatant absorbance to the absorbance before centrifugation provided the percent solubilization.

Molecule: CCCCCCCCCCCC[N+](C)(C)[O-] [DDAO, dodecylammonium-N-oxide]
CMC [1]: 10.4 mM

solubility (Aqueous solubility; read-out: solubility): 210 mM (≈ 60.6 mg/mL)
CMC ([2]; orange OT uptake): 130 mM
Molecule: O=C(O)C(c1ccccc1)(c1ccccc1)c1ccccc1 [Detergent 4.1]

solubility in water (in words) (Aqueous solubility): very soluble in water
solubility (Aqueous solubility; read-out: solubility in water): > 2000 mM
CMC ([2]; dye uptake): about 80 mM
Molecule: C[N+](C)([O-])CCN(CC[N+](C)(C)[O-])C(=O)CC(c1ccccc1)(c1ccccc1)c1ccccc1 [Detergent 4.10]

CMC ([2]; dye uptake): about 12.5 mM
Molecule: CC(C)(C)c1ccc(C(CC(=O)N(CC[N+](C)(C)[O-])CC[N+](C)(C)[O-])(c2ccccc2)c2ccccc2)cc1 [Detergent 4.20]

Molecule: CCCCCCCCO[C@@H]1O[C@H](CO)[C@@H](O)[C@H](O)[C@H]1O [OG]
removal of BR from the purple membrane (in words) (Bacteriorhodopsin (BR) [3]): successfully remove BR from its native environment

Molecule: Br.CCCCCCCCCCCCN [dodecylammonium bromide]
CMC ratio, dodecylammonium bromide vs N-oxide analog (LDAO) [4]: > 7 times larger
CMC [1]: 15 mM

Molecule: CCCCCCCCCO[C@@H]1O[C@H](CO)[C@@H](O)[C@H](O)[C@H]1O [nonyl glucoside (NG), nonyl glucoside]
removal of BR from the purple membrane (in words) (Bacteriorhodopsin (BR) [3]): successfully remove BR from its native environment

Molecule: Triton X-100 [reference compound]
removal of BR from the purple membrane (in words) (Bacteriorhodopsin (BR) [3]): successfully remove BR from its native environment
BR solubilization (in words) (Bacteriorhodopsin (BR) [5]): effective at solubilizing BR
time to solubilize BR (Bacteriorhodopsin (BR) [5]; pH 5): 49 h
time to solubilize BR (Bacteriorhodopsin (BR) [5]; pH 6.9): 24 h
